From PMC10138506, “Design, Synthesis and Cytotoxic Activity of Novel Salicylaldehyde Hydrazones against Leukemia and Breast Cancer” (International Journal of Molecular Sciences, 2023)
Like-named read-outs stand apart in the source and are kept apart here.

Tests used:
MDA-MB-231 cells = assay: MTT-dye reduction cytotoxicity assay, MDA-MB-231; assay type: cell-based, human; conditions: for IC50: Homo sapiens, MDA-MB-231; for SI (selectivity index) MDA-MB-231: SI = IC50 (HEK-293)/IC50 (cancer cells)
Procedure: (§1) The research included four leukemic and three cancer human cell lines: HL-60 (acute myeloid leukemia), SKW-3 (KE-37 derivative) (T-cell leukemia), BV-173 and K-562 (chronic myeloid leukemia), MDA-MB-231 (ER-negative breast carcinoma), MCF-7 (ER-positive breast adenocarcinoma), and SaOS-2 (osteogenic sarcoma). The cells were provided from the German Collection of Microorganisms and Cell Cultures (DSMZ, Braunschweig, Germany). The solid tumor cell lines (MDA-MB-231, MCF-7, and SaOS-2) were incubated in 90% RPMI-1640 supplemented with 10% fetal bovine serum (FBS), non-essential amino acids, 1 mM sodium pyruvate, and […] human insulin as monolayer adherent cultures. The remaining cell lines were cultivated as a suspension culture in cell culture flasks at 37 °C in an incubator “BB 16-Function Line” Heraeus (Kendro, Hanau, Germany) with humidified atmosphere and 5% CO2 under standard conditions–RPMI-1640 liquid media supplemented with 10% FBS and 2 mM L-glutamine. The cells were kept in log phase by supplementing with fresh media after removing cell suspension aliquots two or three times each week.
(§2) At least eight wells were used for each concentration.

BV-173 cells = assay: MTT-dye reduction cytotoxicity assay, BV-173; assay type: cell-based, human; conditions: for IC50: Homo sapiens, BV-173; for SI (selectivity index) BV-173: SI = IC50 (HEK-293)/IC50 (cancer cells)
Procedure: as §1, §2

KE-37 cells = assay: MTT-dye reduction cytotoxicity assay, KE-37; assay type: cell-based, human; conditions: for IC50: Homo sapiens, KE-37; for SI (selectivity index) KE-37: SI = IC50 (HEK-293)/IC50 (cancer cells)
Procedure: as §1, §2

K-562 cells = assay: MTT-dye reduction cytotoxicity assay, K-562; assay type: cell-based, human; conditions: for IC50: Homo sapiens, K562; for Ligand Efficiency (LE) K-562: LE = pIC50/number of heavy atoms; for SI (selectivity index) K-562: SI = IC50 (HEK-293)/IC50 (cancer cells)
Procedure: as §1, §2

MCF-7 cells = assay: MTT-dye reduction cytotoxicity assay, MCF-7; assay type: cell-based, human; conditions: for IC50: Homo sapiens, MCF7; for SI (selectivity index) MCF-7: SI = IC50 (HEK-293)/IC50 (cancer cells)
Procedure: as §1, §2

SaOS-2 cells = assay: MTT-dye reduction cytotoxicity assay, SaOS-2; assay type: cell-based, human; conditions: for IC50: Homo sapiens, SAOS-2; for SI (selectivity index) SaOS-2: SI = IC50 (HEK-293)/IC50 (cancer cells)
Procedure: as §1, §2

HL-60 cells = assay: MTT-dye reduction cytotoxicity assay, HL-60; assay type: cell-based, human; conditions: for IC50: Homo sapiens, HL-60; for SI (selectivity index) HL-60: SI = IC50 (HEK-293)/IC50 (cancer cells)
Procedure: as §1, §2

[1] = tested on: HL-60, KE-37, K-562, BV-173, SaOS-2, MDA-MB-231, MCF-7 cell lines; assay: Average over the cancer cell lines tested (LE, SI); assay type: cell-based, human; conditions: average over seven cancer cell lines
Procedure: (§3) To assess the selectivity of the newly synthesized derivatives, they were tested on the normal human embryonic kidney HEK-293 cell line. The derived IC50 values were used to calculate the selectivity index according to the formula SI = IC50 (normal cells)/IC50 (cancer cells).
The training set of salicylaldehyde hydrazones contained 11 compounds synthesized and tested before in our Lab. Their anticancer activities were measured and expressed as IC50 values on the following cell lines: HL-60, KE-37, K-562, BV-173, SaOS-2, MDA-MB-231, and MCF-7. For the purposes of SAR analysis, the IC50 values were converted in p-units (−logIC50) and ligand efficiencies (LEs) were calculated according to the formula: LE = pIC50/n, where n is the count of non-hydrogen atoms in the molecule.

[2] = MTT-dye reduction cytotoxicity assay, normal HEK-293; conditions: human
Procedure: as §3
The cytotoxic activity of the examined substances was determined using Mossman’s MTT [3-(4,5-dimethylthiazol-2-yl)-2,5-diphenyltetrazolium bromide] dye reduction assay. The approach is based on the reduction of the yellow tetrazolium salt MTT to a violet formazan in live cells via mitochondrial succinate dehydrogenase. In brief, exponentially developing cells were seeded at a density of 1 × 10^5 cells per ml in 96-well flat-bottomed microplates (100 μL/well), and after 24 h of incubation at 37 °C, they were treated to varied doses of the tested substances for 72 h. At least eight wells were used for each concentration. Following the incubation with the test compounds, aliquots of 10 μL MTT solution (10 mg/mL in PBS) were applied to each well. The microplates were then incubated at 37 °C for 4 h before the MTT-formazan crystals were dissolved with 100 μL/well 5% HCOOH in 2-propanol. The MTT-formazan absorbance was measured at 580 nm using a microprocessor-controlled microplate reader (Labexim LMR-1).
The cell survival data were standardized as a percentage of the untreated control (set as 100% viability). The biological data were processed statistically using Student’s t-test, where values were considered statistically significant at p ≤ 0.05. The corresponding IC50 values were obtained to allow quantitative merit for the assessment of the relative potencies of the compounds under investigation. Each data point represents the arithmetic mean ± standard deviation (sd) of at least eight independent experiments.

[3] = training set, some activities published before [26-32], the rest measured for this study, read-out: IC50 ± standard deviation, MDA-MB-231
[4] = training set, some activities published before [26-32], the rest measured for this study, read-out: IC50 ± standard deviation, BV-173
[5] = training set, some activities published before [26-32], the rest measured for this study, read-out: IC50 ± standard deviation, KE-37
[6] = training set, some activities published before [26-32], the rest measured for this study, read-out: IC50 ± standard deviation, K-562
[7] = training set, some activities published before [26-32], the rest measured for this study, read-out: IC50 ± standard deviation, MCF-7
[8] = training set, some activities published before [26-32], the rest measured for this study, read-out: IC50 ± standard deviation, SaOS-2
[9] = training set, some activities published before [26-32], the rest measured for this study, read-out: IC50 ± standard deviation, HL-60
[10] = 72 h treatment, read-out: IC50 exp, MDA-MB-231
[11] = 72 h treatment, read-out: IC50 exp, BV-173
[12] = 72 h treatment, read-out: IC50 exp, KE-37
[13] = 72 h treatment, read-out: IC50 exp, K-562
[14] = 72 h treatment, read-out: IC50 exp, MCF-7
[15] = 72 h treatment, read-out: IC50 exp, SaOS-2
[16] = HEK-293 cells (normal human embryonic kidney)
[17] = 72 h treatment, read-out: IC50 exp, HL-60

| SMILES | IC50 (MDA-MB-231 cells; [3]) [µM] | IC50 (BV-173 cells; [4]) [µM] | IC50 (KE-37 cells; [5]) [µM] | IC50 (K-562 cells; [6]) [µM] | Ligand Efficiency (LE) K-562 (K-562 cells) | IC50 (MCF-7 cells; [7]) [µM] | IC50 (SaOS-2 cells; [8]) [µM] | IC50 (HL-60 cells; [9]) [µM] | further results |
| --- | --- | --- | --- | --- | --- | --- | --- | --- | --- |
| COc1ccc(C=NNC(=O)c2ccncc2)c(O)c1 (hydrate or solvate) [Compound 14, 4-methoxysalicylaldehyde isonicotinoylhydrazone] |  |  |  |  |  |  |  |  | melting point: 232 to 233 °C |
| COc1cccc(/C=N/NC(=O)c2ccccc2)c1O [Compound 1] | 25.3 ± 2.7 | 20.8 ± 4.2 | 9.8 ± 3.1 | 27 ± 2.7 | 0.228 | 22.5 ± 5.4 | 25.5 ± 6.2 | 11.3 ± 2.6 |  |
| COc1cccc(/C=N/NC(=O)c2ccc(O)cc2)c1O [Compound 2] | 24.2 ± 3.8 | 7.8 ± 2 | 7.6 ± 2.1 | 14.3 ± 2.9 | 0.231 | 19.7 ± 2.2 | 19.2 ± 3.1 | 9.2 ± 2.4 |  |
| COc1cccc(/C=N/NC(=O)c2ccncc2)c1O [Compound 3] | 16.4 ± 2 | 3.7 ± 1.1 | 3.3 ± 1.2 | 8.7 ± 2 | 0.253 | 11.7 ± 2.4 | 11.9 ± 3.2 | 2.7 ± 0.9 |  |
| O=C(N/N=C/c1cc(Br)ccc1O)c1ccc(O)cc1 [Compound 4] | 20.1 ± 3.9 |  | 3 ± 0.5 | 2.83 ± 0.3 | 0.277 | 8.88 ± 2.7 | 50 ± 5.7 | 3.14 ± 1.1 |  |
| O=C(N/N=C/c1cc(Br)ccc1O)c1ccncc1 [Compound 5] | 38.4 ± 2 | 0.63 ± 0.2 | 2.53 ± 1 | 0.14 ± 0.09 | 0.360 | 0.26 ± 0.03 | 146 ± 8.9 | 4.13 ± 1.2 |  |
| O=C(N/N=C/c1cc([N+](=O)[O-])ccc1O)c1ccccc1 [Compound 6] | 2.8 ± 2.7 | 2.39 ± 0.3 | 6.38 ± 0.2 | 7.94 ± 2.3 | 0.243 | 0.25 ± 0.03 | 41.9 ± 5.1 | 5.64 ± 1.1 |  |
| O=C(N/N=C/c1cc([N+](=O)[O-])ccc1O)c1ccc(O)cc1 [Compound 7] | > 200 | 7.62 ± 1 | 19.9 ± 2.2 | > 200 |  | 4.95 ± 0.06 | 199 ± 12 | 14.5 ± 2.1 |  |
| O=C(N/N=C/c1cc([N+](=O)[O-])ccc1O)c1ccncc1 [Compound 8] | 72.3 ± 5.6 | 10.2 ± 1.1 | 17 ± 3.1 | 19 ± 2.7 | 0.225 | 0.18 ± 0.03 | 35.7 ± 4.3 | 15 ± 2.4 |  |
| COc1ccc(O)c(/C=N/NC(=O)c2ccccc2)c1 [Compound 9] | 4.46 ± 1.1 | 3.15 ± 0.8 | 3.38 ± 1 |  |  | 0.91 ± 0.3 |  | 5.29 ± 1.2 |  |
| COc1ccc(O)c(/C=N/NC(=O)c2ccc(O)cc2)c1 [Compound 10] | 12.1 ± 1.9 | 3.86 ± 0.9 | 14.8 ± 2.5 |  |  | 3.54 ± 0.5 |  | 13.8 ± 3.1 |  |
| COc1ccc(O)c(/C=N/NC(=O)c2ccncc2)c1 [Compound 11] | 5.58 ± 1.3 | 2.95 ± 0.8 | 10.9 ± 2.2 |  |  | 3 ± 0.6 |  | 6.68 ± 1.4 |  |
| COc1ccc(C=NNC(=O)c2ccccc2)c(O)c1 [Compound 12, 4-methoxysalicylaldehyde benzoylhydrazone] |  |  |  |  |  |  |  |  | average SI [1]: 350; IC50 (MDA-MB-231 cells; [10]): 2.31 ± 0.25 µM; SI (selectivity index) MDA-MB-231 (MDA-MB-231 cells): 16; IC50 (BV-173 cells; [11]): 1.21 ± 0.11 µM; SI (selectivity index) BV-173 (BV-173 cells): 31; IC50 (KE-37 cells; [12]): 1.99 ± 0.17 µM; SI (selectivity index) KE-37 (KE-37 cells): 19; IC50 (K-562 cells; [13]): 0.03 ± 0.002 µM; SI (selectivity index) K-562 (K-562 cells): 1254; IC50 (MCF-7 cells; [14]): 0.23 ± 0.02 µM; SI (selectivity index) MCF-7 (MCF-7 cells): 164; IC50 (SaOS-2 cells; [15]): 1.68 ± 0.15 µM; SI (selectivity index) SaOS-2 (SaOS-2 cells): 22; IC50 at 72 h [2, 16]: 37.6 ± 3.41 µM; melting point: 182 to 183 °C; IC50 (HL-60 cells; [17]): 0.04 ± 0.005 µM; SI (selectivity index) HL-60 (HL-60 cells): 941 |
| COc1ccc(C=NNC(=O)c2ccncc2)c(O)c1 [Compound 14, 4-methoxysalicylaldehyde isonicotinoylhydrazone] |  |  |  |  |  |  |  |  | average SI [1]: 258; IC50 (MDA-MB-231 cells; [10]): 1.22 ± 0.19 µM; SI (selectivity index) MDA-MB-231 (MDA-MB-231 cells): 34; IC50 (BV-173 cells; [11]): 0.97 ± 0.12 µM; SI (selectivity index) BV-173 (BV-173 cells): 42; IC50 (KE-37 cells; [12]): 2.26 ± 0.73 µM; SI (selectivity index) KE-37 (KE-37 cells): 18; IC50 (K-562 cells; [13]): 0.05 ± 0.008 µM; SI (selectivity index) K-562 (K-562 cells): 821; IC50 (MCF-7 cells; [14]): 0.23 ± 0.04 µM; SI (selectivity index) MCF-7 (MCF-7 cells): 179; IC50 (SaOS-2 cells; [15]): 1.66 ± 0.24 µM; SI (selectivity index) SaOS-2 (SaOS-2 cells): 25; IC50 at 72 h [2, 16]: 41.1 ± 2.05 µM; IC50 (HL-60 cells; [17]): 0.06 ± 0.004 µM; SI (selectivity index) HL-60 (HL-60 cells): 685 |
| N[C@@H](Cc1ccc(N(CCCl)CCCl)cc1)C(=O)O [Melphalan, 2-amino-3-[4-bis(2-chloroethyl)amino]phenylpropanoic acid, reference compound] |  |  |  |  |  |  | 31.4 ± 5.4 |  | IC50 (SaOS-2 cells; [15]): 31.4 ± 5.4 µM; IC50 at 72 h [2]: 24.8 ± 2.9 µM |
